# Molecular target: T1, PCID2 (PCI-domain containing protein 2) (Homo sapiens, UniProt Q5JVF3)
# T1 construct: amine-type direct coupling to CM5 chip; DSS1 not mentioned in the SPR test
# Assay: SPR (Biacore, CM5 chip, […] Langmuir global fit)
# Format: binding
# T1 sequence (Q5JVF3 2-399): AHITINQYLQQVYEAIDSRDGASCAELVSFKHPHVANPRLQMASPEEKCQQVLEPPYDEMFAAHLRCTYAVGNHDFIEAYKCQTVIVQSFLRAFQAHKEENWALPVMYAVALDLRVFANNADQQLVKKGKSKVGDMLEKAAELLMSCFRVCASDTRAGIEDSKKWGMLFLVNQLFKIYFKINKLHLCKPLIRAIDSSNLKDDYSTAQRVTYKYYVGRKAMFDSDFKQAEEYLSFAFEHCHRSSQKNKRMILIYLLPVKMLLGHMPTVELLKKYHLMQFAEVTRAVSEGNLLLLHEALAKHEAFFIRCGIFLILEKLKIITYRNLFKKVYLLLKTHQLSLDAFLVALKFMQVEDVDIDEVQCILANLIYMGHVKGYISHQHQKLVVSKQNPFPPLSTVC
structure (smiles),measurement,value
"O=C(OC[C@H]1O[C@@H](OC(=O)c2cc(O)c(O)c(O)c2)[C@H](OC(=O)c2cc(O)c(O)c(O)c2)[C@@H](OC(=O)c2cc(O)c(O)c(O)c2)[C@@H]1OC(=O)c1cc(O)c(O)c(O)c1)c1cc(O)c(O)c(O)c1 [#02, 1,2,3,4,6-Penta-O-galloyl-β-D-glucose]",Kd,5.27 µM
